Results published in PubChem BioAssay AID248 (DTP/NCI, 2004).
Several values for one entry are separate records, joined by “and”; a condition that tells them apart may be missing. Equal values may be shown once. Toxic doses and inconclusive results are not listed.

Tested on: L1210 leukemia ip in BDF1 mice, survival T/C
Assay: NCI In Vivo Anticancer Drug Screen. Data for tumor model L1210 Leukemia (intraperitoneal) in B6D2F1 (BDF1) mice
Conditions: higher = longer survival
Summary of the method: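 Read-out is survival time, reported as the treated-group measurement over the vehicle-control measurement.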

[1] = endpoint: mean survival time, dose: 100.0 mg/kg/injection, schedule: Q01DX001 (ip), vehicle: Klucel (hydroxypropylcellulose) (HPC)
[2] = endpoint: mean survival time, dose: 100.0 mg/kg/injection, schedule: Q01DX009 (ip), vehicle: Klucel (hydroxypropylcellulose) (HPC)
[3] = endpoint: mean survival time, dose: 200.0 mg/kg/injection, schedule: Q01DX001 (ip), vehicle: Klucel (hydroxypropylcellulose) (HPC)
[4] = endpoint: mean survival time, dose: 200.0 mg/kg/injection, schedule: Q01DX009 (ip), vehicle: Klucel (hydroxypropylcellulose) (HPC)
[5] = endpoint: mean survival time, dose: 400.0 mg/kg/injection, schedule: Q01DX001 (ip), vehicle: Klucel (hydroxypropylcellulose) (HPC)
[6] = endpoint: mean survival time, dose: 100.0 mg/kg/injection, schedule: Q04DX003 (ip), vehicle: saline with Tween-80
[7] = endpoint: mean survival time, dose: 200.0 mg/kg/injection, schedule: Q04DX003 (ip), vehicle: saline with Tween-80
[8] = endpoint: mean survival time, dose: 400.0 mg/kg/injection, schedule: Q04DX003 (ip), vehicle: saline with Tween-80
[9] = endpoint: mean survival time, dose: 100.0 mg/kg/injection, schedule: Q01DX009 (ip), vehicle: saline with Tween-80
[10] = endpoint: mean survival time, dose: 200.0 mg/kg/injection, schedule: Q01DX009 (ip), vehicle: saline with Tween-80
[11] = endpoint: mean survival time, dose: 400.0 mg/kg/injection, schedule: Q01DX009 (ip), vehicle: saline with Tween-80

`CCCCCCCCCCCCn1c(C)nc2ccccc21` was tested, and the T/C (endpoint: mean survival time, dose: 2.4 mg/kg/injection, schedule: Q03HX024 (ip), vehicle: saline) was 94 % of control, the T/C (endpoint: mean survival time, dose: 3.6 mg/kg/injection, schedule: Q03HX024 (ip), vehicle: saline) was 91 % of control and the T/C (endpoint: mean survival time, dose: 5.0 mg/kg/injection, schedule: Q01DX001 (ip), vehicle: saline) was 104 % of control. For the same molecule, the T/C (endpoint: mean survival time, dose: 5.0 mg/kg/injection, schedule: Q04DX003 (ip), vehicle: carboxymethylcellulose (CMC)) was 105 % of control, the T/C (endpoint: mean survival time, dose: 5.4 mg/kg/injection, schedule: Q03HX024 (ip), vehicle: saline) was 97 % of control and the T/C (endpoint: mean survival time, dose: 8.0 mg/kg/injection, schedule: Q03HX024 (ip), vehicle: saline) was 96 % of control. The T/C (endpoint: mean survival time, dose: 10.0 mg/kg/injection, schedule: Q01DX001 (ip), vehicle: saline) was 101 % of control, the T/C (endpoint: mean survival time, dose: 10.0 mg/kg/injection, schedule: Q04DX003 (ip), vehicle: carboxymethylcellulose (CMC)) was 106 % of control and the T/C (endpoint: mean survival time, dose: 12.0 mg/kg/injection, schedule: Q01DX009 (ip), vehicle: saline) was 116 % of control. The T/C (endpoint: mean survival time, dose: 12.0 mg/kg/injection, schedule: Q03HX024 (ip), vehicle: saline) was 104 % of control, the T/C (endpoint: mean survival time, dose: 18.0 mg/kg/injection, schedule: Q01DX009 (ip), vehicle: saline) was 118 % of control and the T/C (endpoint: mean survival time, dose: 20.0 mg/kg/injection, schedule: Q01DX001 (ip), vehicle: saline) was 104 % of control. For the same molecule, the T/C (endpoint: mean survival time, dose: 20.0 mg/kg/injection, schedule: Q04DX003 (ip), vehicle: carboxymethylcellulose (CMC)) was 108 % of control, the T/C (endpoint: mean survival time, dose: 24.0 mg/kg/injection, schedule: Q01DX001 (ip), vehicle: saline) was 106 % of control and the T/C (endpoint: mean survival time, dose: 24.0 mg/kg/injection, schedule: Q04DX003 (ip), vehicle: saline) was 113 % of control. The T/C (endpoint: mean survival time, dose: 27.0 mg/kg/injection, schedule: Q01DX009 (ip), vehicle: saline) was 113 % of control, the T/C (endpoint: mean survival time, dose: 36.0 mg/kg/injection, schedule: Q01DX001 (ip), vehicle: saline) was 105 % of control and the T/C (endpoint: mean survival time, dose: 36.0 mg/kg/injection, schedule: Q04DX003 (ip), vehicle: saline) was 104 % of control. For the same molecule, the T/C (endpoint: mean survival time, dose: 40.0 mg/kg/injection, schedule: Q01DX001 (ip), vehicle: saline) was 112 % of control.

`C[N+]1(Cc2c[nH]c3ccsc23)CCCCC1` was tested, and the T/C (endpoint: mean survival time, dose: 3.0 mg/kg/injection, schedule: Q01DX009 (ip), vehicle: saline with Tween-80) was 99 % of control, the T/C (endpoint: mean survival time, dose: 6.0 mg/kg/injection, schedule: Q01DX009 (ip), vehicle: saline with Tween-80) was 97 % of control and the T/C (endpoint: mean survival time, dose: 12.0 mg/kg/injection, schedule: Q01DX009 (ip), vehicle: saline with Tween-80) was 90 % of control. The T/C (endpoint: mean survival time, dose: 12.5 mg/kg/injection, schedule: Q04DX003 (ip), vehicle: saline with Tween-80) was 101 % of control.

With `CC(=O)NC1CCC(CC(=O)O)CC1` (stereo unspecified) the T/C [1] was 94 % of control and 96 % of control, the T/C [2] was 98 % of control and the T/C (endpoint: mean survival time, dose: 100.0 mg/kg/injection, schedule: Q04DX003 (ip), vehicle: Klucel (hydroxypropylcellulose) (HPC)) was 92 % of control. For the same molecule, the T/C [3] was 94 % of control and 102 % of control, the T/C [4] was 87 % of control and the T/C (endpoint: mean survival time, dose: 200.0 mg/kg/injection, schedule: Q04DX003 (ip), vehicle: Klucel (hydroxypropylcellulose) (HPC)) was 99 % of control. For the same molecule, the T/C [5] was 91 % of control and 94 % of control and the T/C (endpoint: mean survival time, dose: 400.0 mg/kg/injection, schedule: Q04DX003 (ip), vehicle: Klucel (hydroxypropylcellulose) (HPC)) was 95 % of control.

With `Cc1nc([Se]c2nc(C)n3ccncc23)c2cnccn12` the T/C [6] was 98 % of control, the T/C [7] was 95 % of control and the T/C [8] was 93 % of control.

In the case of `BrC1CCC(Br)C(Br)CCC1Br` (stereo unspecified), the T/C [1] is reported as 101 % of control, the T/C [2] is reported as 104 % of control and the T/C [3] is reported as 97 % of control. The T/C [4] was 97 % of control, the T/C [5] was 95 % of control and the T/C (endpoint: mean survival time, dose: 400.0 mg/kg/injection, schedule: Q01DX009 (ip), vehicle: Klucel (hydroxypropylcellulose) (HPC)) was 90 % of control.

For `CN(C)N=Nc1cccc(C(N)=O)c1`, the T/C (endpoint: mean survival time, dose: 5.0 mg/kg/injection, schedule: Q01DX009 (ip), vehicle: Klucel (hydroxypropylcellulose) (HPC)) was 104 % of control, the T/C (endpoint: mean survival time, dose: 10.0 mg/kg/injection, schedule: Q01DX009 (ip), vehicle: Klucel (hydroxypropylcellulose) (HPC)) was 115 % of control and the T/C (endpoint: mean survival time, dose: 20.0 mg/kg/injection, schedule: Q01DX009 (ip), vehicle: Klucel (hydroxypropylcellulose) (HPC)) was 121 % of control. For the same molecule, the T/C (endpoint: median survival time, dose: 39.0 mg/kg/injection, schedule: Q01DX009 (ip), vehicle: steriod suspending solution) was 150 % of control, the T/C (endpoint: median survival time, dose: 65.0 mg/kg/injection, schedule: Q01DX001 (ip), vehicle: steriod suspending solution) was 105 % of control and the T/C (endpoint: median survival time, dose: 65.0 mg/kg/injection, schedule: Q01DX009 (ip), vehicle: steriod suspending solution) was 95 % of control. For the same molecule, the T/C (endpoint: median survival time, dose: 108.0 mg/kg/injection, schedule: Q01DX001 (ip), vehicle: steriod suspending solution) was 120 % of control and the T/C (endpoint: median survival time, dose: 180.0 mg/kg/injection, schedule: Q04DX003 (ip), vehicle: steriod suspending solution) was 105 % of control.

For `CC12CCC(OC3OC(CO)C(O)C(O)C3O)CC1CCC1C2CCC2(C)C(C3=CC(=O)OC3)CCC12O` (stereo unspecified), the T/C (endpoint: mean survival time, dose: 10.0 mg/kg/injection, schedule: Q01DX009 (ip), vehicle: saline) was 101 % of control, the T/C (endpoint: mean survival time, dose: 20.0 mg/kg/injection, schedule: Q01DX009 (ip), vehicle: saline) was 96 % of control and the T/C (endpoint: mean survival time, dose: 40.0 mg/kg/injection, schedule: Q01DX009 (ip), vehicle: saline) was 102 % of control.

`CCN(CC)CC(C)(N)c1c2ccccc2nc2c1ccc1ccccc12` (stereo unspecified) was tested, and the T/C (endpoint: mean survival time, dose: 50.0 mg/kg/injection, schedule: Q01DX009 (ip), vehicle: other) was 101 % of control, the T/C (endpoint: mean survival time, dose: 100.0 mg/kg/injection, schedule: Q01DX009 (ip), vehicle: other) was 111 % of control and the T/C (endpoint: mean survival time, dose: 200.0 mg/kg/injection, schedule: Q01DX009 (ip), vehicle: other) was 119 % of control.

`O=C(O)CCCCCN1C(=O)C2CC=CCC2C1=O` (stereo unspecified) was tested, and the T/C (endpoint: mean survival time, dose: 6.0 mg/kg/injection, schedule: Q04DX002 (ip), vehicle: saline with Tween-80) was 106 % of control, the T/C (endpoint: mean survival time, dose: 12.5 mg/kg/injection, schedule: Q04DX002 (ip), vehicle: saline with Tween-80) was 91 % of control and the T/C (endpoint: mean survival time, dose: 25.0 mg/kg/injection, schedule: Q04DX002 (ip), vehicle: saline with Tween-80) was 98 % of control. For the same molecule, the T/C (endpoint: mean survival time, dose: 50.0 mg/kg/injection, schedule: Q04DX002 (ip), vehicle: saline with Tween-80) was 102 % of control.

For `CC1(O)CCCCCCC1`, the T/C (endpoint: mean survival time, dose: 50.0 mg/kg/injection, schedule: Q01DX001 (ip), vehicle: saline) was 102 % of control, the T/C (endpoint: mean survival time, dose: 100.0 mg/kg/injection, schedule: Q01DX001 (ip), vehicle: saline) was 93 % of control and the T/C (endpoint: mean survival time, dose: 200.0 mg/kg/injection, schedule: Q01DX001 (ip), vehicle: saline) was 91 % of control.

For `CC(C(=O)c1ccc(-c2ccccc2)cc1)C(Cl)c1ccccc1` (stereo unspecified), the T/C [9] was 106 % of control, the T/C [10] was 94 % of control and the T/C [11] was 97 % of control.

For `CC(C)CCC(C)C1CCC2C3CC([N+](=O)[O-])=C4CC(OC(=O)c5ccccc5)CCC4(C)C3CCC12C` (stereo unspecified), the T/C [9] was 103 % of control, the T/C [10] was 90 % of control and the T/C [11] was 90 % of control.

For `O=C(O)C1c2ccccc2-c2c(-c3ccccc3)cccc21` (stereo unspecified), the T/C [6] was 87 % of control, the T/C [7] was 91 % of control and the T/C [8] was 103 % of control.

With `O=[N+]([O-])c1ccc(OCCNS(=O)(=O)c2cccc(S(=O)(=O)F)c2)c(Cl)c1` the T/C [9] was 104 % of control, the T/C [6] was 97 % of control and the T/C [10] was 88 % of control. The T/C [7] was 95 % of control, the T/C [11] was 90 % of control and the T/C [8] was 101 % of control.
